The target in the test is human DGAT2 (hDGAT2) (Homo sapiens (Human), UniProt Q96PD7). The experiment in a line: DGAT2 Enzymatic Activity Assay. It counts as biochemical. The note with it: membrane prep of Sf-9 insect cells expressing hDGAT2; 13C18-triolein product by LC/MS/MS. As to the method:
Sf-9 insect cells were maintained in Grace's insect cell culture medium with 10% heated-inactivated fetal bovine serum, 1% Pluronic F-68 and 0.14 μg/ml Kanamycine sulfate at 27° C. in a shaker incubator. After infection with untagged baculovirus expressing human DGAT2 (hDGAT2) at multiplicity of infection (MOI) 3 for 48 hours, cells were harvested. Cell pellets were suspended in buffer containing 10 mM Tris-HCl pH 7.5, 1 mM EDTA, 250 mM sucrose and Complete Protease Inhibitor Cocktail (Sigma Aldrich), and sonicated on ice. Cell debris were removed by centrifugation at 2000×g for 15 minutes. Membrane fractions were isolated by ultracentrifugation (100,000×g), resuspended in the same buffer, and frozen (−80° C.) for later use. The protein concentration was determined with the Pierce™ BCA Protein Assay Kit (Thermo Fisher Scientific). Expression of protein levels was analyzed by immunoblotting with rabbit anti-DGAT2 antibody (Abcam, ab102831) and donkey anti-rabbit IgG H&L Alexa Fluor® 647 (Abcam, ab150075) followed by detection using Typhoon FLA9000 (GE Healthcare).
LC/MS/MS analyses were performed using Thermal Fisher's LX4-TSQ Vantage system. This system consists of an Agilent binary high-performance liquid chromatography (HPLC) pumps and a TSQ Vantage triple quadrupole MS/MS instrument. For each sample, 2 μL samples from the top organic layer of in-plate liquid-liquid extraction were injected onto a Thermo Betabasic C4 column (2.1 mm×20 mm, 5 μm particle size). The samples were then eluted using the following conditions; mobile phase: Isopropanol: acetonitrile/10 mM ammonium formate=50/35/15 (v/v/v), flow rate: 0.8 mL/min, temperature: 25° C. Data was acquired in positive mode using a heated electrospray ionization (HESI) interface. The operational parameters for the TSQ Vantage MS/MS instrument were a spray voltage of 3000 V, capillary temperature of 280° C., vaporizer temperature 400° C., sheath gas 45 arbitrary unit, Aux gas 10 arbitrary units, S-lens 165 and collision gas 1.0 mTorr. […] (SRM) chromatograms of ^13C18-triolein (Q1: 920.8>Q3:621.3) and internal standard ^13C21-triolein (Q1: 923.8>Q3:617.3) were collected for 33 sec. The peak area was integrated by Xcalibur Quan software. The ratio between the ^13C18 triolein generated in the reaction and spiked in internal standard ^13C21-triolein was used to generate percentage inhibition and IC50 values. Compound percentage inhibition was calculated by the following formula: Inhibition %=1−[(compound response−low control)/(high control−low control)]×100%. Potent compounds were titrated and IC50 were calculated by 4 parameter sigmoidal curve fitting formula.
DGAT2 activity was determined by measuring the amount of enzymatic product ^13C18-triolein (^13C-1,2,3-Tri(cis-9-octadecenoyl)glycerol) using the membrane prep mentioned above. The assay was carried out in ABgene 384-well assay plates in a final volume of 25 μL at rt. The assay mixture contained the following: assay buffer (100 mM Tris·Cl, pH 7.0, 20 mM MgCl2, 5% ethanol), 25 μM of diolein, 5 μM of ^13C oleoyl-CoA and 8 ng/μL of DGAT2 membrane.
Sequence of human DGAT2 (hDGAT2) (Q96PD7 whole entry): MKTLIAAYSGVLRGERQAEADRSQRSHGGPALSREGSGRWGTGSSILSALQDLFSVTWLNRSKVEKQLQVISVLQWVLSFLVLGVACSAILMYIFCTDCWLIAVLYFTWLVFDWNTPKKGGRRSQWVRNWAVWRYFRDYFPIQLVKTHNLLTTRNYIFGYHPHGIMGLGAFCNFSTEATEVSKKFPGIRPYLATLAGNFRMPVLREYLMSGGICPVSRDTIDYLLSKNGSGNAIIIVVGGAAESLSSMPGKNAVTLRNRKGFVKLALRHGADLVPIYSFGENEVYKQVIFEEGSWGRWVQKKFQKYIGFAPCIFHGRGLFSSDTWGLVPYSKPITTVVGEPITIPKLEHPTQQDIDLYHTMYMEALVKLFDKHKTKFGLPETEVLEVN
As usually defined, the IC50 is the point on the concentration scale where inhibition reaches its midpoint. Molecule `CC(C)n1nc(-c2cccc(OC(F)F)c2)c2ncc(C(=O)NC3(C(C)O)CCOC3)cc21` (single isomer, unassigned) [Example 50d, 3-(3-(difluoromethoxy)phenyl)-N-(3-(1-hydroxyethyl)tetrahydrofuran-3-yl)-1-isopropyl-1H-pyrazolo[4,3-b]pyridine-6-carboxamide] registered an IC50 of 150 nM. The molecule `Cn1nccc1-c1nn(-c2ccc(F)cc2)c2cc(C(=O)N[C@@]3(C)CCS(=O)(=O)C3)cnc12` [Example 2, (S)-1-(4-fluorophenyl)-N-(3-methyl-1,1-dioxidotetrahydrothiophen-3-yl)-3-(1-methyl-1H-pyrazol-5-yl)-1H-pyrazolo[4,3-b]pyridine-6-carboxamide] displayed an IC50 of 142 nM. In turn, `C[C@]1(NC(=O)c2cnc3c(-c4cccc(OC(F)F)c4)nn(-c4ncc(F)cn4)c3c2)CCS(=O)(=O)C1` [Example 3, (S)-3-(3-(difluoromethoxy)phenyl)-1-(5-fluoropyrimidin-2-yl)-N-(3-methyl-1,1-dioxidotetrahydrothiophen-3-yl)-1H-pyrazolo[4,3-b]pyridine-6-carboxamide] returned an IC50 of 57 nM. Regarding `CC1(NC(=O)c2cnc3c(-c4cccc(OC(F)F)c4)nn(-c4ncc(F)cn4)c3c2)CS(=O)(=O)C1` [Example 4, 3-(3-(difluoromethoxy)phenyl)-1-(5-fluoropyrimidin-2-yl)-N-(3-methyl-1,1-dioxidothietan-3-yl)-1H-pyrazolo[4,3-b]pyridine-6-carboxamide], the IC50 stood at 17 nM. Against the preceding molecule, the IC50 is about 3.4-fold lower. Regarding `C[C@]1(NC(=O)c2cc3c(cn2)c(-c2cccc(OC(F)F)c2)nn3-c2ccc(F)cc2)CCS(=O)(=O)C1` [Example 5, (S)-3-(3-(difluoromethoxy)phenyl)-1-(4-fluorophenyl)-N-(3-methyl-1,1-dioxidotetrahydrothiophen-3-yl)-1H-pyrazolo[4,3-c]pyridine-6-carboxamide], the IC50 turned out to be 11 nM.

The molecule `C[C@]1(NC(=O)c2cc3c(cn2)c(-c2cncc(OC(F)F)c2)nn3-c2ccc(F)cc2)CCS(=O)(=O)C1` [Example 6, (S)-3-(5-(difluoromethoxy)pyridin-3-yl)-1-(4-fluorophenyl)-N-(3-methyl-1,1-dioxidotetrahydrothiophen-3-yl)-1H-pyrazolo[4,3-c]pyridine-6-carboxamide] displayed an IC50 of 89 nM.

In turn, `CN(C)[C@H]1COC[C@@H]1NC(=O)c1cnc2c(-c3cccc(OC(F)F)c3)cn(-c3ncc(F)cn3)c2c1` [Example 8, 3-(3-(difluoromethoxy)phenyl)-N-((3R,4R)-4-(dimethylamino)tetrahydrofuran-3-yl)-1-(5-fluoropyrimidin-2-yl)-1H-pyrrolo[3,2-b]pyridine-6-carboxamide] registered an IC50 of 119 nM. This IC50 and that of the molecule before are within 1.5-fold of each other.

`C[C@]1(NC(=O)c2ccc3c(-c4ccccc4Cl)cn(-c4ccc(F)cc4)c3n2)CCS(=O)(=O)C1` [Example 10, (S)-3-(2-chlorophenyl)-1-(4-fluorophenyl)-N-(3-methyl-1,1-dioxidotetrahydrothiophen-3-yl)-1H-pyrrolo[2,3-b]pyridine-6-carboxamide] displayed an IC50 of 3700 nM. Compared with the last molecule, the IC50 is about 31-fold higher. For `C[C@]1(NC(=O)c2cnc3c(-c4ccccc4Cl)cn(-c4ccc(F)cc4)c3c2)CCS(=O)(=O)C1` [Example 11, (S)-3-(2-chlorophenyl)-1-(4-fluorophenyl)-N-(3-methyl-1,1-dioxidotetrahydrothiophen-3-yl)-1H-pyrrolo[3,2-b]pyridine-6-carboxamide] the value was 186 nM; for `C[C@@]1(NC(=O)c2cnc3c(-c4ccccc4Cl)cn(-c4ccc(F)cc4)c3c2)CCS(=O)(=O)C1` [Example 12, (R)-3-(2-chlorophenyl)-1-(4-fluorophenyl)-N-(3-methyl-1,1-dioxidotetrahydrothiophen-3-yl)-1H-pyrrolo[3,2-b]pyridine-6-carboxamide], 356 nM. Consider `Cn1nccc1-c1cn(-c2ccc(F)cc2)c2cc(C(=O)N[C@@]3(C)CCS(=O)(=O)C3)cnc12` [Example 13, (S)-1-(4-fluorophenyl)-N-(3-methyl-1,1-dioxidotetrahydrothiophen-3-yl)-3-(1-methyl-1H-pyrazol-5-yl)-1H-pyrrolo[3,2-b]pyridine-6-carboxamide], for which the IC50 worked out at 89 nM.

With `C[C@]1(NC(=O)c2cc3c(cn2)c(-c2ccccc2Cl)cn3-c2ccc(F)cc2)CCS(=O)(=O)C1` [Example 14, (S)-3-(2-chlorophenyl)-1-(4-fluorophenyl)-N-(3-methyl-1,1-dioxidotetrahydrothiophen-3-yl)-1H-pyrrolo[3,2-c]pyridine-6-carboxamide], the IC50 was 292 nM. This IC50 lies about 3.3-fold higher than the previous one.

In the case of `C[C@]1(NC(=O)c2cc3c(cn2)c(-c2cccc(OC(F)F)c2)cn3-c2ccc(F)cc2)CCS(=O)(=O)C1` [Example 15, (S)-3-(3-(difluoromethoxy)phenyl)-1-(4-fluorophenyl)-N-(3-methyl-1,1-dioxidotetrahydrothiophen-3-yl)-1H-pyrrolo[3,2-c]pyridine-6-carboxamide], 23 nM corresponded to half-maximal inhibition (IC50). With `CC(C)NC(=O)c1cnc2c(-c3cccc(OC(F)F)c3)cn(-c3ncc(F)cn3)c2c1` [Example 16, 3-(3-(difluoromethoxy)phenyl)-1-(5-fluoropyrirnidin-2-yl)-N-isopropyl-1H-pyrrolo[3,2-b]pyridine-6-carboxamide] the figure was 209 nM. `CC(CS(C)(=O)=O)NC(=O)c1cnc2c(-c3cccc(OC(F)F)c3)cn(-c3ncc(F)cn3)c2c1` (centres unmarked) [Example 17, 3-(3-(difluoromethoxy)phenyl)-1-(5-fluoropyrimidin-2-yl)-N-(1-(methylsulfonyl)propan-2-yl)-1H-pyrrolo[3,2-b]pyridine-6-carboxamide] gave an IC50 of 72 nM. In the case of `CC(C)(NC(=O)c1cnc2c(-c3cccc(OC(F)F)c3)cn(-c3ncc(F)cn3)c2c1)C(N)=O` [Example 18, N-(1-amino-2-methyl-1-oxopropan-2-yl)-3-(3-(difluoromethoxy)phenyl)-1-(5-fluoropyrimidin-2-yl)-1H-pyrrolo[3,2-b]pyridine-6-carboxamide], half-maximal inhibition (IC50) required 3420 nM. With `O=C(NCC1CC(F)(F)C1)c1cnc2c(-c3cccc(OC(F)F)c3)cn(-c3ncc(F)cn3)c2c1` [Example 19, N-((3,3-difluorocyclobutyl)methyl)-3-(3-(difluoromethoxy)phenyl)-1-(5-fluoropyrimidin-2-yl)-1H-pyrrolo[3,2-b]pyridine-6-carboxamide] the figure was above 1000 nM. `N[C@@H]1CCC[C@H]1NC(=O)c1cnc2c(-c3cccc(OC(F)F)c3)cn(-c3ncc(F)cn3)c2c1` [Example 21, N-((1R,2R)-2-aminocyclopentyl)-3-(3-(difluoromethoxy)phenyl)-1-(5-fluoropyrimidin-2-yl)-1H-pyrrolo[3,2-b]pyridine-6-carboxamide] came in with an IC50 of 6530 nM.

Turning to `N[C@@H]1COC[C@H]1NC(=O)c1cnc2c(-c3cccc(OC(F)F)c3)cn(-c3ncc(F)cn3)c2c1` [Example 22, N-((3S,4S)-4-aminotetrahydrofuran-3-yl)-3-(3-(difluoromethoxy)phenyl)-1-(5-fluoropyrimidin-2-yl)-1H-pyrrolo[3,2-b]pyridine-6-carboxamide], half-maximal inhibition (IC50) was put at 630 nM. This IC50 lies about 10-fold lower than the previous one. For `N[C@@H]1CCC[C@@H]1NC(=O)c1cnc2c(-c3cccc(OC(F)F)c3)cn(-c3ncc(F)cn3)c2c1` [Example 23, N-((1S,2R)-2-aminocyclopentyl)-3-(3-(difluoromethoxy)phenyl)-1-(5-fluoropyrimidin-2-yl)-1H-pyrrolo[3,2-b]pyridine-6-carboxamide] the value was 173 nM.

For the origin of these results see patent US20240059700A1, “NOVEL DIACYLGLYCERIDE O-ACYLTRANSFERASE 2 INHIBITORS” (Merck Sharp & Dohme LLC, priority 2020, published 2024).
